Target: T1, human σ2 receptor (TMEM97) (Homo sapiens, UniProt Q5BJF2)
Assay: biochemical
Type: Expi293 membranes
Settings: read-out: % of control remaining

T1 sequence (Q5BJF2 whole entry): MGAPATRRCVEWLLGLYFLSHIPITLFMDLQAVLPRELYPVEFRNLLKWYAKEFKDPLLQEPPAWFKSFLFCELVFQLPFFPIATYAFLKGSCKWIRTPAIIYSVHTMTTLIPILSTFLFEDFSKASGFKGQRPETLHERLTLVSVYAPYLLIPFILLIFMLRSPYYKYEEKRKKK

Compound	remaining activity at 1 µM
CC1CCN(C2CCC(NC(=O)C(=O)Nc3ccc(C(C)C)cc3)CC2)CC1 (stereo not shown) [ZINC000131303503]	10.7%
N/C(=N\Cc1ccc(F)cc1Br)NCC1CCC1 [ZINC000170908795]	0.9%
O=C(CC1CCCC1)NC1CCN(C[C@H](O)C2CCCCC2)CC1 [ZINC000191344346]	8.7%
c1ccc(CSc2cncc(N3CCC[C@H](N4CCCC4)CC3)n2)cc1 [ZINC000301801549]	6.9%
Cc1ccc([C@H]2CCN(CC3(O)CCC3)C2)c(C)c1 [ZINC000348332392]	5.2%
CC(C)(C)[C@@H]1CCN(C[C@@H](O)COCc2ccccc2F)C1 [ZINC000409447221]	9.7%
CCOC(=O)[C@@H](CC)N1CCN(C2CCC(C(C)C)CC2)CC1 (stereo partly shown) [ZINC000440321606]	11.9%
C[C@@H](c1ccccc1)[C@@H](O)CN1CCC(c2c[nH]c3ncccc23)CC1 [ZINC000450573233]	3.6%
CN1CCC(C(=O)NC[C@@H]2CCN(c3ncc(Cl)cn3)C2)CC1 [ZINC001061620290]	91.3%
CN(C)C(=O)c1cncc(N[C@H]2CC[C@H](NC(=O)C(N)=O)CC2)n1 [ZINC001063398490]	146%
Cn1cc(C(=O)N2CCO[C@@H](CNC(=O)C=C3CCC3)C2)ncc1=O [ZINC001065434920]	57.8%
O=C(c1cccnn1)N1CCC(O)(CNc2cncc(Cl)n2)CC1 [ZINC001067478391]	104%
C[C@@H]1CN(C(=O)Cc2cncnc2)C[C@H]1NC(=O)CCn1cccn1 [ZINC001071984909]	89.9%
CNC(=O)[C@@H](C)N1CCC2(CN(C(=O)c3c[nH]c4nccc-4c3)C2)C1 [ZINC001072835483]	81.8%
CCc1cc(C(=O)NC[C@H]2CN(CCn3cncn3)CCCO2)no1 [ZINC001073859800]	110%
CN1CC[C@@H](C(=O)NC[C@H]2CN(Cc3csnn3)CCCO2)C1 [ZINC001073886256]	113%
O=C(C[C@H]1C=CCC1)NCC1(O)CCN(C(=O)c2cncnc2)CC1 [ZINC001074556982]	89.6%
NC(=O)C(=O)N1CCC(O)(CNC(=O)[C@H]2CCCCC2(F)F)CC1 [ZINC001074702922]	109%
Cc1c(F)cccc1C(=O)N[C@@H]1CN(CCC2CCCCC2)C[C@H]1O [ZINC001077034834]	16.5%
C[C@@H](CCNC(=O)C1(CN(C)C)CC1)NC(=O)c1ncccc1O [ZINC001078073018]	111%
CC[C@@H]1[C@@H](NC(=O)Cc2ccc(C)cc2)CCN1C[C@@H]1CCOC1 [ZINC001087646081]	99.4%
Cc1ccoc1CC(=O)N1C[C@H]2CCN(CC(=O)N(C)C)C[C@H]2C1 [ZINC001088099598]	132%
Cc1ccc(CN2[C@@H]3CC[C@H]2[C@@H](NC(=O)c2cn(C)cn2)C3)c(C)c1 [ZINC001095312060]	69.4%
C[C@H](C(=O)N[C@H]1C[C@H]2CC[C@@H]1N2CCn1cccn1)c1ccccc1F [ZINC001096194954]	118%
O=C(N[C@@H]1CCN(CCC2CCCC2)C[C@@H]1O)C1(C(F)F)CCC1 [ZINC001099969021]	28.5%

Compound	remaining activity at 1 µM
Cc1cc(C)nc(NC[C@@H](O)CNC(=O)[C@@H]2CCc3c[nH]nc3C2)n1 [ZINC001105862991]	76.1%
C[C@H](C(=O)N[C@H]1C[C@H]2CC[C@@H]1N2CCOCC1CC1)c1cccs1 [ZINC001109713565]	28.7%
O=C1CN(CC(=O)N[C@H](CNc2cc(F)ncn2)C2CC2)CCN1 [ZINC001109958062]	90.2%
CN(C)S(=O)(=O)CCC(=O)N[C@H]1[C@@H]2CN(Cc3ccon3)C[C@@H]21 [ZINC001115282185]	109%
CO[C@@H](CNC(=O)C(=O)N1C[C@@H]2C(=O)N(C)C(=O)[C@@H]2C1)CC(C)C [ZINC001119173847]	95.8%
O=C(NCCN1CCNC1=O)C(=O)NC[C@H]1CCc2ccccc21 [ZINC001119470858]	107%
CN(C[C@@H](O)CN(C)c1ncc(F)cn1)C(=O)CCc1cnn[nH]1 [ZINC001125309519]	88%
CN1CCC[C@@H]1C(=O)NC[C@H]1CN(CCCC(C)(C)C)CCCO1 [ZINC001149399826]	96.4%
C(=C\c1ccccc1)/CNc1ccc2c(n1)CCC2 [ZINC001156463732]	32.6%
Cc1cc(C)cc(C2=CCN(CCC(=O)N3CCc4ccccc43)CC2)c1 [ZINC001168222793]	13.7%
C[C@@H](C(=O)NCc1ccc(Cl)cc1)N1CCC(C(C)(C)C)CC1 [ZINC001169307444]	21.2%
CCOCCNC(=O)CN1C[C@@H](O)[C@H](NC(=O)[C@@]23COC[C@@H]2C3)C1 [ZINC001193095852]	112%
COc1ccc2c(c1)C[C@H](CN1CCCC[C@H]1CCC(=O)OC(C)(C)C)O2 [ZINC001195393353]	54.5%
CCc1ccc(F)cc1C(=O)N1CCCN(CCOC(C)C)CC1 [ZINC001196417557]	71.9%
Cc1cc(C(=O)N2CCCO[C@@H](CNCC(=O)NC3CC3)C2)n(C)n1 [ZINC001199969207]	124%
CN(C)S(=O)(=O)N(C)CC(=O)N[C@@H]1C[C@H](NCCO)C12CCC2 [ZINC001202928172]	117%
C[C@@H]1CN([C@H]2CCc3ccccc3NC2=O)C[C@H]1NC(=O)/C=C\C(C)(C)C [ZINC001206651458]	109%
CCNS(=O)(=O)CCNC(=O)C(=O)N[C@@H](C)C1=CCN(C)CC1 [ZINC001261177261]	70.9%
CN1C(=O)[C@H]2CN(C(=O)C(=O)NC3CCC(F)(F)CC3)C[C@H]2C1=O [ZINC001261948364]	90.8%
CC[C@H]1CCN(CC(=O)Nc2cc(Cl)ccc2C#N)[C@H]1C [ZINC001307701283]	62.5%
FC(F)(F)c1ccnc([C@H]2CCN(CCCc3ccc4c(c3)CCO4)C2)n1 [ZINC001308961074]	2.4%
OC1(CN2CC(Cc3ccccc3C(F)(F)F)C2)CCC1 [ZINC001320149247]	14.7%
COC(=O)N1CCC[C@H](NC(=O)C(=O)N2CC[C@@](O)(C3CC3)C2)C1 [ZINC001323717111]	95%
COC(=O)[C@@H]1C[C@H](O)CN(C(=O)C(=O)N[C@H](C)C2CCOCC2)C1 [ZINC001326422624]	99.2%
C[C@@H](CNC(=O)C(=O)NCc1nnn(C)n1)N(C)Cc1ccccc1 [ZINC001328800283]	86.4%

Compound	remaining activity at 1 µM
COc1cccc2c1OC[C@H](NC(=O)C(=O)N[C@@H]1CC(=O)N(C)C1)C2 [ZINC001341791776]	222%
O=C(Nc1ccc2c(=O)[nH]ccc2c1)C(=O)N1C[C@H](CO)[C@@H](O)C1 [ZINC001350153389]	93.3%
CN(C[C@H]1CCCN1C)C(=O)[C@]1(C)CC(c2ccccc2Cl)=NO1 [ZINC001362573982]	94.8%
O=C([C@@H]1CCc2nnc(O)n2C1)N1CC(CNC(=O)C(F)(F)F)C1 [ZINC001363211634]	78.6%
O=S(=O)(N[C@@H]1CCc2nnnn2CC1)c1cnc2n1CCCC2 [ZINC001363999416]	104%
COC[C@@H](O)CN1CC[C@H](NC(=O)c2c(C)c(C)nn(C)c2=O)C1 [ZINC001365986475]	109%
O=C(CCn1cccn1)NCCN1CCN(CCn2cccn2)CC1 [ZINC001369886058]	111%
CCC1(C(=O)NCC[C@@H]2CCN(Cc3nccn3C)C2)CCCC1 [ZINC001377717241]	102%
Cc1ccnc(CN[C@@H](C)CCNC(=O)c2ccn(C(C)C)c2C)n1 [ZINC001381212829]	71.1%
O=C(NCC1CN(CCC2CCCC2)C1)C1(c2cccnc2)CC1 [ZINC001391502525]	43.6%
C[C@@H]1CCC[C@H](CCN(C)CCNC(=O)c2c3c(nn2C)CCC3)C1 [ZINC001399642198]	21.2%
COc1ccc(C(=O)N(C)C[C@H](C)NCC2CCC(C)(C)CC2)nn1 [ZINC001403624658]	65.3%
CC(=O)N[C@@H]1CCN(S(=O)(=O)c2cnn([C@@H]3CCOC3)c2)C1 [ZINC001413380655]	118%
CCN1CCCC[C@H]1C(=O)NC[C@@H](O)CNC(=O)c1cnccn1 [ZINC001416718427]	80.5%
CC(C)N1CC[C@H](CCNC(=O)c2cc(-c3cccnc3)on2)C1 [ZINC001418905447]	130%
Cc1cc(C)nc(C(=O)NCCC2CCN(CCOC(C)C)CC2)c1 [ZINC001419404744]	19.6%
COCC1(C(=O)N2CCC[C@@H](N(C)CC[C@H](C)F)C2)CC1 [ZINC001420054689]	78.5%
Cc1cnc(CN2CC[C@@H](CCNC(=O)c3cncs3)C2)s1 [ZINC001437918206]	103%
Cc1cc(C)c(/C=C\CN2CCC[C@@H](O)C2)cc1C [ZINC001474404955]	62.3%
O=C(C[C@]1(O)CCCNC1)Nc1cn2cc(Br)ncc2n1 [ZINC001515357045]	104%
O=C(OC[C@@H]1CCN1Cc1ccccc1)c1nccc2occc12 [ZINC001525937517]	117%
Cc1cccc2c1CCN2C(=O)[C@@H]1CC[C@H]2CCCC[C@@H]2N1 [ZINC001579778746]	19.6%
N[C@H](Cc1ccccn1)C(=O)NCc1ccccc1C(F)(F)F [ZINC001580410121]	122%
C[C@@H]1CN(CC(=O)NCCCO[C@@H](C)c2ccccc2)[C@H](C)CCO1 [ZINC001655120594]	112%

Target: T1, human σ2 receptor (TMEM97)
Assay: biochemical
Type: Expi293 membranes
Settings: not given

Compound	Ki
CC1CCN(C2CCC(NC(=O)C(=O)Nc3ccc(C(C)C)cc3)CC2)CC1 (stereo not shown) [ZINC000131303503]	14.7 nM
N/C(=N\Cc1ccc(F)cc1Br)NCC1CCC1 [ZINC000170908795]	6.7 nM
O=C(CC1CCCC1)NC1CCN(C[C@H](O)C2CCCCC2)CC1 [ZINC000191344346]	11.7 nM
c1ccc(CSc2cncc(N3CCC[C@H](N4CCCC4)CC3)n2)cc1 [ZINC000301801549]	19.6 nM
Cc1ccc([C@H]2CCN(CC3(O)CCC3)C2)c(C)c1 [ZINC000348332392]	33.7 nM
CC(C)(C)[C@@H]1CCN(C[C@@H](O)COCc2ccccc2F)C1 [ZINC000409447221]	8.85 nM
CCOC(=O)[C@@H](CC)N1CCN(C2CCC(C(C)C)CC2)CC1 (stereo partly shown) [ZINC000440321606]	4.15 nM
C[C@@H](c1ccccc1)[C@@H](O)CN1CCC(c2c[nH]c3ncccc23)CC1 [ZINC000450573233]	4.3 nM

Reference: paper doi:10.1101/2021.04.29.441652v1 (biorxiv, 2021)
